Measured values reported in ChEMBL document CHEMBL1201862, “PubChem BioAssay data set” (2004).
Active and inactive are the calls of the source.

Key:
[1] = target: Glucose-6-phosphate 1-dehydrogenase (Homo sapiens, UniProt P11413); test: inhibition of Homo sapiens G6PD, dose series – biochemical, fluorescence, selectivity assay for P. falciparum G6PD inhibitor project, dose response (AID 504792); type: functional
[2] = target: T1, Small ubiquitin-related modifier 1 (Homo sapiens, UniProt P63165); test: SUMO1 protein interaction blockers, potency – biochemical, fluorescence polarization, uHTS hits, dose response (AID 624382); type: functional; conditions: read-out: IC50_Mean
[3] = target: T1, Small ubiquitin-related modifier 1; test: SUMO1 protein-protein binding blockers, potency – biochemical, FRET, dose response (AID 624383); type: functional; conditions: read-out: IC50_Mean
[4] = viability loss in HeLa cells – cytotoxicity control for MgcRacGAP inhibitor project, dose response (AID 624300); type: functional
[5] = target: T2, Rac GTPase-activating protein 1 (Homo sapiens, UniProt Q9H0H5); test: blockers of MgcRacGAP-driven Rac1 GTP hydrolysis – biochemical, ADP Hunter fluorescence, primary and confirmatory, confirmation (AID 624330); type: functional
T2 sequence (Q9H0H5 whole entry): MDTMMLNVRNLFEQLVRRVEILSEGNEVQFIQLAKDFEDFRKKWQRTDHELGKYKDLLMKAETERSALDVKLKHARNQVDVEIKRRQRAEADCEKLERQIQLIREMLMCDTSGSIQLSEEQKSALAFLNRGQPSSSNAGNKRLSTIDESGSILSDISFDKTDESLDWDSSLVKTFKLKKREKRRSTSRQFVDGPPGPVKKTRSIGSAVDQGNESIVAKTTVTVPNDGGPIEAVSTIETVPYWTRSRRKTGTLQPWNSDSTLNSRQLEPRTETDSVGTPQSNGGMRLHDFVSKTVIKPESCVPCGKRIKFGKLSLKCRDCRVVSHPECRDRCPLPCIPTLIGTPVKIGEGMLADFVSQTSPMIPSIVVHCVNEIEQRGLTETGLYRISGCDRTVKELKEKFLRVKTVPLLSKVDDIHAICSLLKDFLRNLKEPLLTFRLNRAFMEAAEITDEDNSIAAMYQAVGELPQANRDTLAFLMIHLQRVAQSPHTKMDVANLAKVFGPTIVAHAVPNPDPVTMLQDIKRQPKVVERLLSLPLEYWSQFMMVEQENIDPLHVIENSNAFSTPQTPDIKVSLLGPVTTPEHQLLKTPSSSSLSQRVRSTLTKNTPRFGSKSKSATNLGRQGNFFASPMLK

[6] = target: T3, DNA repair protein RAD52 homolog (Homo sapiens, UniProt P43351); type: functional, biochemical
T3 sequence (P43351 whole entry): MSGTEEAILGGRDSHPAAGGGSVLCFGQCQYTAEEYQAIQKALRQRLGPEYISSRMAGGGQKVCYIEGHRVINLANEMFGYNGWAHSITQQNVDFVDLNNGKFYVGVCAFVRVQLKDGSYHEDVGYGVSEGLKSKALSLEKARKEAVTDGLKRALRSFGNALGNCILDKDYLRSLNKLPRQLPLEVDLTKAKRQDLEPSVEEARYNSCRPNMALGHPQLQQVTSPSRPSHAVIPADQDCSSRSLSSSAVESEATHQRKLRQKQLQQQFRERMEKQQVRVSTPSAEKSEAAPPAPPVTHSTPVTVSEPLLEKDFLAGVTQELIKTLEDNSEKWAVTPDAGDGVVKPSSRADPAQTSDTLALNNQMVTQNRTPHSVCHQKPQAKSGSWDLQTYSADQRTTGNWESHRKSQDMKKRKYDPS

[7] = viability loss in THP-1 monocytes – THP-1 cells, cytotoxicity control for Vif-APOBEC3G degradation inhibitor project, dose response (AID 1117359); type: functional; conditions: THP-1
[8] = target: Glutathione-S-transferase (Schistosoma japonicum, UniProt Q26513); test: GST-antibody interaction or FRET quenching – biochemical, TR-FRET, artefact control for Vif-APOBEC3G degradation inhibitor project, dose response (AID 1117362); type: functional
Paired box protein Pax-8 = Paired box protein Pax-8 (Homo sapiens, UniProt Q06710); test: PAX8 transcriptional activity inhibition in RMG-I – RMG-I cells, luciferase, cherry-pick, dose response (AID 687027); type: functional, cell-based;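 also: luciferase reporter driven by Pax8 target thyroperoxidase promoter measured by SteadyGlo luminescence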
[9] = toxicity toward immortalized ovarian surface epithelium – cell-based, plate reader, dry powder samples, cytotoxicity control for PAX8 inhibitor project, dose response (AID 743045); type: functional
[10] = A2780 cell killing – plate reader, dry powder samples, cytotoxicity control, dose response (AID 743046); type: functional, cell-based
[11] = reduced cellular PGC1a acetyl-lysine signal – cell-based, cherry-picked samples, dose response (AID 720514); type: functional;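 also: potency may reflect raised or lowered acetylation signal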
[12] = OVCAR-3 cell viability loss – plate reader, dry powder samples, PAX8 inhibitor project, dose response (AID 743044); type: functional, cell-based
[13] = IGROV1 cell killing – plate reader, dry powder samples, PAX8 inhibitor project, dose response (AID 743043); type: functional, cell-based; conditions: IGROV-1
[14] = OVCAR8 cell viability loss – plate reader, dry powder samples, PAX8 project, dose response (AID 743197); type: functional, cell-based; conditions: OVCAR-8
Kallikrein-7 = Kallikrein-7 (Homo sapiens, UniProt P49862); test: Fluorescence Intensity-based biochemical primary high throughput dose response assay to identify activators of kallikrein-7 (K7) zymogen.
[15] = general mammalian cell viability loss – inhibitor set, cherry-pick, set 2, cytotoxicity control for miR-122 modulator project, dose response (AID 720697); type: functional, cell-based
[16] = general mammalian cell viability loss – activator set, cherry-pick, cytotoxicity control for miR-122 modulator project, dose response (AID 720690); type: functional, cell-based;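 also: HEK293T human cells scored for general mammalian cytotoxicity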

T1 sequence (P63165 whole entry): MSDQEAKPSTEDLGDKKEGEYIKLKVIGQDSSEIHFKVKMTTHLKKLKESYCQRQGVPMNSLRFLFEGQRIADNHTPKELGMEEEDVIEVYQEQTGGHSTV
Sequence of Kallikrein-7 (P49862 whole entry): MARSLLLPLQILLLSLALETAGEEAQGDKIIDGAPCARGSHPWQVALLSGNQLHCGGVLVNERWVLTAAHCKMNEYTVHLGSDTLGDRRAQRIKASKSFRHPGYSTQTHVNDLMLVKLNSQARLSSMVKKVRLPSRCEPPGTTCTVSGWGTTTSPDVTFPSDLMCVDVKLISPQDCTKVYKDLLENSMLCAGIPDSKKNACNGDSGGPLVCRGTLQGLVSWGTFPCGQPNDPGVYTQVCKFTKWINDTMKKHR
Sequence of Paired box protein Pax-8 (Q06710 whole entry): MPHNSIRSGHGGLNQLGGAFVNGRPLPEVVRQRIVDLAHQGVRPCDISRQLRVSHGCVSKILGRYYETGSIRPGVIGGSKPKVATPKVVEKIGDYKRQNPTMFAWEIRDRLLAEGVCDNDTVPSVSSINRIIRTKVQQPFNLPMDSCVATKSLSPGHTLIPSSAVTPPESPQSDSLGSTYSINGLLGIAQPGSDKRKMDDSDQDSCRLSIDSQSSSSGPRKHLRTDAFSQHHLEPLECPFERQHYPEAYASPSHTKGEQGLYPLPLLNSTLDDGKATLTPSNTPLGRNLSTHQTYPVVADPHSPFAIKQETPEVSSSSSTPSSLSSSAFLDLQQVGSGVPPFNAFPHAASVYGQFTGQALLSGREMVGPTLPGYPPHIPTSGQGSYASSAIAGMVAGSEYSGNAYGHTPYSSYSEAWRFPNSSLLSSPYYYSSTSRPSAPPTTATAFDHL
Sequence of Glutathione-S-transferase (Q26513 whole entry): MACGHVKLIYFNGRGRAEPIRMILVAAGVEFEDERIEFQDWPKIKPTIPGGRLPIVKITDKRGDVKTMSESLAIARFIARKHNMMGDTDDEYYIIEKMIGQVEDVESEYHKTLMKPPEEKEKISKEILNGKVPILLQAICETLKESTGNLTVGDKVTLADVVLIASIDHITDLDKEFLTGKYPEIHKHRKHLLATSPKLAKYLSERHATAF
Sequence of Glucose-6-phosphate 1-dehydrogenase (P11413 whole entry): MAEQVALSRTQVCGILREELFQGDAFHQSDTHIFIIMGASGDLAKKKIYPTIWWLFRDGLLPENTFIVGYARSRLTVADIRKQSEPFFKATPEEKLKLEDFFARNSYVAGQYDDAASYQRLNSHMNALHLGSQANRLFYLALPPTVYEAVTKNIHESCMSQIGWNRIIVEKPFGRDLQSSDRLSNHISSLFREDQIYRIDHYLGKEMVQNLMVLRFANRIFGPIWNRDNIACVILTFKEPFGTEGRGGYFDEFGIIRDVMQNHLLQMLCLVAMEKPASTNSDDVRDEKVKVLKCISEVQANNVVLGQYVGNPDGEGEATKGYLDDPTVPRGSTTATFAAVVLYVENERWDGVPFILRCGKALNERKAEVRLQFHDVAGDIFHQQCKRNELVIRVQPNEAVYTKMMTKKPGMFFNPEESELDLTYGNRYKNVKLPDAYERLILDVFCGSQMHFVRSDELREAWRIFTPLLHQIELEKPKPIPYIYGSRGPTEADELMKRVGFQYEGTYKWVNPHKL

In the case of Cc1cc(C)c2c(=N)c3ccccc3n(CCCCCCCCn3c4ccccc4c(=N)c4c(C)cc(C)nc43)c2n1, the IC50 [1] is reported as 29 µM (inactive), the IC50 [2] is reported as > 66.6 µM (inactive) and the IC50 [3] is reported as 4.83 µM (active). For the same molecule, the CC50 [4] was 20.4 µM (active), the IC50 [5] was 26.3 µM (active) and the AC50 [6] was < 0.364 µM (active). For the same molecule, the CC50 [7] was 5.65 µM (active) and the IC50 [8] was 2.4 µM (active).
With N#Cc1ccc(-c2ccc([C@@H]3[C@@H]4CN(S(=O)(=O)c5ccc(-c6ccccc6)cc5)C[C@H]3N4)cc2)cc1 the AC50 (Paired box protein Pax-8) was 41.9 µM (active), the AC50 [9] was 23.3 µM (active) and the AC50 [10] was 17.8 µM (active). For the same molecule, the AC50 [11] was 1.55 µM (active), the AC50 [12] was 28.8 µM (active) and the AC50 [13] was 34.9 µM (active). For the same molecule, the AC50 [14] was 17.8 µM (active).
With COc1ccc2oc(=O)c(C(=O)N3CCN(C(=O)c4ccccc4)CC3)cc2c1 the EC50 (Kallikrein-7) was > 69.5 µM (inactive).
In the case of CN1C(=O)c2cc(NC(=O)c3ccc(C(F)(F)F)cc3)ccc2OC[C@H]2O[C@H](CC(=O)NC3Cc4ccccc4C3)CC[C@@H]21, the AC50 [15] is reported as 0.324 µM (active) and the AC50 [16] is reported as 0.335 µM (active).
